Patent publication US7304068B2, “Substituted pyrazolo [1,5-A] pyrimidinyls and pharmaceutical uses therefore” (SmithKline Beecham Corporation, priority 2002, dated 2007)

test system: HSV-1; experiment: HSV-1 replication in infected Vero 76 cells, DNA hybridization capture assay; format: cell-based, herpes simplex virus 1; conditions: Human alphaherpesvirus 1; HSV-1 infected Vero 76 cells (MOI=0.001), 40-48 hours incubation, HSV DNA detected by hybridization/chemiluminescence
Procedure: Vero 76 cells were maintained in MEM with Earle's salts, L-glutamine, 8% FBS (Hyclone, A-1111-L) and 100 units/mL Penicillin-100 μg/mL Streptomycin. For assay conditions, FBS was reduced to 2%. Cells are seeded into 96-well tissue culture plates at a density of 5×10^4 cells/well after being incubated for 45 min at 37° C. in the presence of HSV-1 or HSV-2 (MOI=0.001). Test compounds are added to the wells and the plates are incubated at 37° C. for 40-48 hours. Cell lysates are prepared as follows: media was removed and replaced with 150 μL/well 0.2 N NaOH with 1% igepal CA 630 or NP-40. Plates were incubated up to 14 days at room temperature in a humidified chamber to prevent evaporation.
For the detection probe, a gel-purified, digoxigenin-labeled, 710-bp PCR fragment of the HSV UL-15 sequence was utilized. PCR conditions included 0.5 μM primers, 180 μM dTTP, 20 μM dUTP-digoxigenin (Boehringer Mannheim 1558706), 200 μM each of dATP, dCTP, and dGTP, 1× PCR Buffer II (Perkin Elmer), 2.5 mM MgCl2, 0.025 units/μL of AmpliTaq Gold polymerase (Perkin Elmer), and 5 ng of gel-purified HSV DNA per 100 μL Extension conditions were 10 min at 95° C., followed by 30 cycles of 95° C. for 1 min, 55° C. for 30 sec, and 72° C. for 2 min. The amplification was completed with a 10-min incubation at 72° C. Primers were selected to amplify a 728 bp probe spanning a section of the HSV1 UL15 open reading frame (nucleotides 249-977). Single-stranded transcripts were purified with Promega M13 Wizard kits. The final product was mixed 1:1 with a mixture of 6 M GuSCN, 100 mM EDTA and 200 μg/mL herring sperm DNA and stored at 4° C.
The capture DNA plasmid (HSV UL13 region in pUC) was linearized by cutting with Xba I, denatured for 15 min at 95° C. and diluted immediately into Reacti-Bind DNA Coating Solution (Pierce, 17250, diluted 1:1 with TE buffer, pH 8) at 1 ng/μL. 75 μL/well were added to Corning (#3922 or 9690) white 96-well plates and incubated at room temperature for at least 4 hrs before washing twice with 300 μL/well 0.2×SSC/0.05% Tween-20 (SSC/T buffer). The plates were then incubated overnight at room temperature with 150 μL/well 0.2 N NaOH, 1% IGEPAL and 10 μg/mL herring sperm DNA.
Twenty-seven (27) μL of cell lysate was combined with 45 μL of hybridization solution (final concentration: 3M GuSCN, 50 mM EDTA, 100 μg/ml salmon sperm DNA, 5× Denhardt's solution, 0.25× APE, and 5 ng of the digoxigenin-labeled detection probe). APE is 1.5 M NH4-acetate, 0.15 M NH4H2 phosphate, and 5 mM EDTA adjusted to pH 6.0. Mineral oil (50 μL) was added to prevent evaporation. The hybridization plates were incubated at 95° C. for 10 minutes to denature the DNA, then incubated at 42° C. overnight. The wells were washed 6× with 300 μL/well SSC/T buffer then incubated with 75 μL/well anti-digoxigenin-HRP-conjugated antibody (Boehringer Mannheim 1207733, 1:5000 in TE) for 30 min at room temperature. The wells were washed 6× with 300 μL/well with PBS/0.05% Tween-20 before 75 μL/well SuperSignal LBA substrate (Pierce) was added. The plates were incubated at room temperature for 30 minutes and chemiluminescence was measured in a Wallac Victor reader.
The following results were obtained for HSV-1.

First: COc1ccc(-c2nn3c(NC4CCCC4)ccnc3c2-c2ccnc(NC3CCCC3)n2)cc1 [Example 6, N-Cyclopentyl-3-[2-(cyclopentylamino)pyrimidin-4-yl]-2-(4-methoxyphenyl)pyrazolo[1,5-α]pyrimidin-7-amine]
Second: COc1ccc(-c2nn3c(NC4CCCC4)ccnc3c2-c2ccnc(NC3CCCC3)c2)cc1 [Example 4, N-Cyclopentyl-3-[2-(cyclopentylamino)-4-pyridinyl]-2-(4-methoxyphenyl)pyrazolo[1,5-α]pyrimidin-7-amine]
The IC50 of the first is 4-fold higher: 2.4 µM for the first, 0.6 µM for the second.

First: c1ccc(-c2nn3c(N4CCCC4)ccnc3c2-c2ccnc(NC3CCCC3)c2)cc1 [Example 2, N-Cyclopentyl-4(2-phenyl-7-pyrrolidin-1-ylpyrazolo[1,5-α]pyrimidin-3-yl)pyridin-2-amine]
Second: c1ccc(-c2nn3c(NC4CCCC4)ccnc3c2-c2ccnc(NC3CCCC3)c2)cc1 [Example 3, N-Cyclopentyl-3-[2-(cyclopentylamino)pyridin-4-yl]-2-phenylpyrazolo[1,5-α]pyrimidin-7-amine]
The IC50 of the first is 2.7-fold higher: 0.8 µM for the first, 0.3 µM for the second.

Going from `Fc1ccc(-c2nn3c(NC4CCCC4)ccnc3c2-c2ccnc(NC3CCCC3)c2)cc1` [Example 5, N-Cyclopentyl-3-[2-(cyclopentylamino)-4-pyridinyl]-2-(4-fluorophenyl)pyrazolo[1,5-α]pyrimidin-7-amine] to `Fc1cc(-c2c(-c3ccccc3)nn3c(N4CCCC4)ccnc23)ccn1` [Example 1, 3-(2-Fluoropyridin-4-yl)-2-phenyl-7-pyrrolidin-1-ylpyrazolo[1,5-α]pyrimidine], the IC50 rises from 1.2 µM to 28 µM (23-fold). The first is the more potent here.
